According to ChEMBL document CHEMBL6074715, “Discovery of pyridine-based derivatives as FLT3 inhibitors for the treatment of acute myeloid leukemia” (Eur J Med Chem, 2025):
The source made the active and inactive calls. No cut-off for these calls is given here.

How the values were obtained:
[1] = AUC (0 to infinity) in Sprague-Dawley rat at 5 mg/kg, iv measured upto 48 hrs by LC-MS/MS analysis; type: ADME, organism-based; conditions: in vivo
BaF3 = assay: Antiproliferative activity against mouse BaF3 cells harbouring TEL-VEGFR2 assessed as inhibition of cell growth measured after 72 hrs by Celltiter-glo luminescent cell viability assay; type: functional, cell-based; conditions: BaF3, 72 h
K562 = assay: Antiproliferative activity against human K562 cells assessed as inhibition of cell growth measured after 72 hrs by Celltiter-glo luminescent cell viability assay; type: functional, cell-based; conditions: K562, 72 h
U-87 MG = assay: Antiproliferative activity against human U-87 MG cells assessed as inhibition of cell growth measured after 72 hrs by Celltiter-glo luminescent cell viability assay; type: functional, cell-based, U-87MG ATCC
OE33 = assay: Antiproliferative activity against human OE33 cells assessed as inhibition of cell growth measured after 72 hrs by Celltiter-glo luminescent cell viability assay; type: functional, cell-based; conditions: OE33, 72 h
MOLM-13 [2] = assay: Inhibition of STAT5 phosphorylation in human MOLM-13 cells incubated for 2 hrs by Western blot analysis; type: cell-based; conditions: dose 0.04-5 µM
MOLM-13 [3] = assay: Induction of cell cycle arrest in human MOLM-13 cells assessed as accumulation of cells at S phase at 0.3 uM measured after 48 hrs by PI staining based flow cytometry analysis (reference value: 45.3%); type: functional
MOLM-13 [4] = assay: Effect on STAT5 level in human MOLM-13 cells at 0.04 to 5 nM measured after 2 hrs by Western blot analysis; type: functional, cell-based; conditions: dose 0.04-5 nM
MOLM-13 [5] = assay: Induction of cell cycle arrest in human MOLM-13 cells assessed as accumulation of cells at G1 phase at 3 uM measured after 48 hrs by PI staining based flow cytometry analysis (reference value: 42.8%); type: functional
MOLM-13 [6] = assay: Induction of cell cycle arrest in human MOLM-13 cells assessed as accumulation of cells at G2 phase at 1 uM measured after 48 hrs by PI staining based flow cytometry analysis (reference value: 12.5%); type: functional
MOLM-13 [7] = assay: Induction of cell cycle arrest in human MOLM-13 cells assessed as accumulation of cells at G2 phase at 3 uM measured after 48 hrs by PI staining based flow cytometry analysis (reference value: 12.5%); type: functional
MOLM-13 [8] = assay: Induction of apoptosis in human MOLM-13 cells assessed as viable cells at 1 uM measured after 48 hrs by annexin-V and PI staining based flow cytometry analysis (reference value: 88.7%); type: functional; conditions: read-out: Activity
MOLM-13 [9] = assay: Induction of apoptosis in human MOLM-13 cells assessed as early apoptotic cells at 3 uM measured after 48 hrs by annexin-V and PI staining based flow cytometry analysis (reference value: 8.92%); type: functional
MOLM-13 [10] = assay: Induction of apoptosis in human MOLM-13 cells assessed as necrotic cells at 0.3 uM measured after 48 hrs by annexin-V and PI staining based flow cytometry analysis (reference value: 0.087%); type: functional
[11] = Half life in Sprague-Dawley rat at 5 mg/kg, iv measured upto 48 hrs by LC-MS/MS analysis; type: ADME, organism-based; conditions: in vivo
[12] = Volume of distribution in Sprague-Dawley rat at 5 mg/kg, iv measured upto 48 hrs by LC-MS/MS analysis; type: ADME, organism-based; conditions: in vivo
[13] = Cmax in Sprague-Dawley rat at 20 mg/kg, po measured upto 48 hrs by LC-MS/MS analysis; type: ADME, organism-based; conditions: in vivo
[14] = AUC (0 to t) in Sprague-Dawley rat at 20 mg/kg, po measured upto 48 hrs by LC-MS/MS analysis; type: ADME, organism-based; conditions: in vivo
[15] = MRT (0 to t) in Sprague-Dawley rat at 20 mg/kg, po measured upto 48 hrs by LC-MS/MS analysis; type: ADME, organism-based; conditions: in vivo
[16] = Toxicity in female NSG mouse assessed as effect on heart at 20 to 40 mg/kg, po measured after 21 days by H and E staining based analysis; type: organism-based; conditions: in vivo, 504 h, dose 20-40 mg/kg, time 21 day
[17] = Toxicity in female NSG mouse assessed as effect on spleen at 20 to 40 mg/kg, po measured after 21 days by H and E staining based analysis; type: organism-based; conditions: in vivo, 504 h, dose 20-40 mg/kg, time 21 day
[18] = Toxicity in female NSG mouse assessed as effect on kidney at 20 to 40 mg/kg, po measured after 21 days by H and E staining based analysis; type: organism-based; conditions: in vivo, 504 h, dose 20-40 mg/kg, time 21 day
[19] = target: ALK tyrosine kinase receptor (Homo sapiens) (UniProt Q9UM73); assay: Inhibition of human ALK at 1 uM by Eurofins kinase assay
[20] = target: Tyrosine-protein kinase receptor UFO (Homo sapiens) (UniProt P30530); assay: Inhibition of human AXL at 1 uM by Eurofins kinase assay
[21] = target: Aurora kinase A (Homo sapiens) (UniProt O14965); assay: Inhibition of human AuroraA at 1 uM by Eurofins kinase assay
[22] = target: Serine/threonine-protein kinase B-raf (Homo sapiens) (UniProt P15056); assay: Inhibition of human BRAF at 1 uM by Eurofins kinase assay
Homo sapiens [23] = organism: Homo sapiens; assay: Inhibition of human CDK1/cyclinB at 1 uM by Eurofins kinase assay
[24] = target: Epithelial discoidin domain-containing receptor 1 (Homo sapiens) (UniProt Q08345); assay: Inhibition of human DDR1 at 1 uM by Eurofins kinase assay
Homo sapiens [25] = organism: Homo sapiens; assay: Inhibition of human DNA-PK at 1 uM by Eurofins kinase assay
[26] = target: Fibroblast growth factor receptor 3 (Homo sapiens) (UniProt P22607); assay: Inhibition of human FGFR3 at 1 uM by Eurofins kinase assay
[27] = tested on: Receptor-type tyrosine-protein kinase FLT3 (Homo sapiens), P36888 [UNDEFINED MUTATION]; assay: Inhibition of human FLT3-ITD at 1 uM by Eurofins kinase assay
[28] = target: Insulin-like growth factor 1 receptor (Homo sapiens) (UniProt P08069); assay: Inhibition of human IGF-1R at 1 uM by Eurofins kinase assay
[29] = target: Mitogen-activated protein kinase 8 (Homo sapiens) (UniProt P45983); assay: Inhibition of human JNK1 at 1 uM by Eurofins kinase assay
[30] = target: Vascular endothelial growth factor receptor 2 (Homo sapiens, UniProt P35968); assay: Inhibition of human KDR at 1 uM by Eurofins kinase assay
[31] = target: Tyrosine-protein kinase Lck (Homo sapiens) (UniProt P06239); assay: Inhibition of human LCK at 1 uM by Eurofins kinase assay
[32] = target: Mitogen-activated protein kinase kinase kinase 1 (Homo sapiens) (UniProt Q13233); assay: Inhibition of human MEKK1 at 1 uM by Eurofins kinase assay
[33] = target: Serine/threonine-protein kinase Nek2 (Homo sapiens) (UniProt P51955); assay: Inhibition of human NEK2 at 1 uM by Eurofins kinase assay
[34] = target: Serine/threonine-protein kinase PAK 4 (Homo sapiens) (UniProt O96013); assay: Inhibition of human PAK4 at 1 uM by Eurofins kinase assay
Homo sapiens [35] = organism: Homo sapiens; assay: Inhibition of human Rct at 1 uM by Eurofins kinase assay
[36] = target: Macrophage colony-stimulating factor 1 receptor (Homo sapiens, UniProt P07333); assay: Inhibition of FMS (unknown origin) preincubated for 10 mins followed by addition of peptide solution by caliper mobility shift assay

Serine/threonine-protein kinase PAK 4 (Homo sapiens), sequence (O96013 whole entry, looked up): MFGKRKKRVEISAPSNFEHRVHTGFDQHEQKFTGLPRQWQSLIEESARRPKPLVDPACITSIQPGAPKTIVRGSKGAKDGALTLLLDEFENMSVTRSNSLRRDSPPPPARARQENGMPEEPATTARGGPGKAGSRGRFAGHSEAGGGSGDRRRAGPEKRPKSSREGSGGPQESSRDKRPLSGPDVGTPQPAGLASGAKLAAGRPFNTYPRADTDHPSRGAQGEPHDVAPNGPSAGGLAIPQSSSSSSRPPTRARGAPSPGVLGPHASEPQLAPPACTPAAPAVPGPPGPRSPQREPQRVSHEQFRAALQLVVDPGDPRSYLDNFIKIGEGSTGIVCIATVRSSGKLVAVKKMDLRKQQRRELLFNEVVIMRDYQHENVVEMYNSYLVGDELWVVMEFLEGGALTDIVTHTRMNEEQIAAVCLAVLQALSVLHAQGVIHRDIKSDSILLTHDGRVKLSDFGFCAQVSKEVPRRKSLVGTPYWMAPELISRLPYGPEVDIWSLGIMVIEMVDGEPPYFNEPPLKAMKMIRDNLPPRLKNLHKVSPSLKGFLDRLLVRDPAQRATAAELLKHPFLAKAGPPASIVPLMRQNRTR
Aurora kinase A (Homo sapiens), sequence (O14965 whole entry): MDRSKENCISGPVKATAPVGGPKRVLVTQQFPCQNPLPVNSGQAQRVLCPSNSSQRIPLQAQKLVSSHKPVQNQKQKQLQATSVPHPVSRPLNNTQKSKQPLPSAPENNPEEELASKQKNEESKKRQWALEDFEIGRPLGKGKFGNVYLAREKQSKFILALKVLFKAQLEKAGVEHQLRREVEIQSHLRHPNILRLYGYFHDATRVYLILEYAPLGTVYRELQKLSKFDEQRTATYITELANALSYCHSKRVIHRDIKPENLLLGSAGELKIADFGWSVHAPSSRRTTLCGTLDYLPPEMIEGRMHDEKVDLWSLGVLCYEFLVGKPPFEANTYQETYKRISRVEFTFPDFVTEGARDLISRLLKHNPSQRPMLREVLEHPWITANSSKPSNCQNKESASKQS
Fibroblast growth factor receptor 3 (Homo sapiens), sequence (P22607 23-806 limits assumed): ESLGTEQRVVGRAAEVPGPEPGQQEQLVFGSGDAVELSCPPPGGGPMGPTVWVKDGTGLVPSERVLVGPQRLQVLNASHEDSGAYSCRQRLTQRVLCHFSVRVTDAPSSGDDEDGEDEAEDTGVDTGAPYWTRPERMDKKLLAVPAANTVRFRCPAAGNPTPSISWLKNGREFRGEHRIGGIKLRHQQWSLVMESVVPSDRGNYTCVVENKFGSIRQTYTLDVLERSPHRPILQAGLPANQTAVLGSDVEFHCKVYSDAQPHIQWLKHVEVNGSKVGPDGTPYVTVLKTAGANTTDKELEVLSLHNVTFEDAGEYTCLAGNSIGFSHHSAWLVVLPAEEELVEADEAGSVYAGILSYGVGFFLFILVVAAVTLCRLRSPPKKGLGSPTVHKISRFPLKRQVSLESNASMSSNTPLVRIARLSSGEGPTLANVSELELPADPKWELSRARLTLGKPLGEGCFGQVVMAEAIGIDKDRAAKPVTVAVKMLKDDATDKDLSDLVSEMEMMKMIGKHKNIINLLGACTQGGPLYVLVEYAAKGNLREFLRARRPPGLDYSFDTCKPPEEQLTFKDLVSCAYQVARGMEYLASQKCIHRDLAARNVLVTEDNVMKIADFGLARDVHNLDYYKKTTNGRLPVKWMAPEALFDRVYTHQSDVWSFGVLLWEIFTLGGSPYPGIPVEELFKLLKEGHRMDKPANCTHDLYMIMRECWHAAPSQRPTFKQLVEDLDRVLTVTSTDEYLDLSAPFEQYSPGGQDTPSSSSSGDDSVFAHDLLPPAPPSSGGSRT
Vascular endothelial growth factor receptor 2, sequence (P35968 whole entry): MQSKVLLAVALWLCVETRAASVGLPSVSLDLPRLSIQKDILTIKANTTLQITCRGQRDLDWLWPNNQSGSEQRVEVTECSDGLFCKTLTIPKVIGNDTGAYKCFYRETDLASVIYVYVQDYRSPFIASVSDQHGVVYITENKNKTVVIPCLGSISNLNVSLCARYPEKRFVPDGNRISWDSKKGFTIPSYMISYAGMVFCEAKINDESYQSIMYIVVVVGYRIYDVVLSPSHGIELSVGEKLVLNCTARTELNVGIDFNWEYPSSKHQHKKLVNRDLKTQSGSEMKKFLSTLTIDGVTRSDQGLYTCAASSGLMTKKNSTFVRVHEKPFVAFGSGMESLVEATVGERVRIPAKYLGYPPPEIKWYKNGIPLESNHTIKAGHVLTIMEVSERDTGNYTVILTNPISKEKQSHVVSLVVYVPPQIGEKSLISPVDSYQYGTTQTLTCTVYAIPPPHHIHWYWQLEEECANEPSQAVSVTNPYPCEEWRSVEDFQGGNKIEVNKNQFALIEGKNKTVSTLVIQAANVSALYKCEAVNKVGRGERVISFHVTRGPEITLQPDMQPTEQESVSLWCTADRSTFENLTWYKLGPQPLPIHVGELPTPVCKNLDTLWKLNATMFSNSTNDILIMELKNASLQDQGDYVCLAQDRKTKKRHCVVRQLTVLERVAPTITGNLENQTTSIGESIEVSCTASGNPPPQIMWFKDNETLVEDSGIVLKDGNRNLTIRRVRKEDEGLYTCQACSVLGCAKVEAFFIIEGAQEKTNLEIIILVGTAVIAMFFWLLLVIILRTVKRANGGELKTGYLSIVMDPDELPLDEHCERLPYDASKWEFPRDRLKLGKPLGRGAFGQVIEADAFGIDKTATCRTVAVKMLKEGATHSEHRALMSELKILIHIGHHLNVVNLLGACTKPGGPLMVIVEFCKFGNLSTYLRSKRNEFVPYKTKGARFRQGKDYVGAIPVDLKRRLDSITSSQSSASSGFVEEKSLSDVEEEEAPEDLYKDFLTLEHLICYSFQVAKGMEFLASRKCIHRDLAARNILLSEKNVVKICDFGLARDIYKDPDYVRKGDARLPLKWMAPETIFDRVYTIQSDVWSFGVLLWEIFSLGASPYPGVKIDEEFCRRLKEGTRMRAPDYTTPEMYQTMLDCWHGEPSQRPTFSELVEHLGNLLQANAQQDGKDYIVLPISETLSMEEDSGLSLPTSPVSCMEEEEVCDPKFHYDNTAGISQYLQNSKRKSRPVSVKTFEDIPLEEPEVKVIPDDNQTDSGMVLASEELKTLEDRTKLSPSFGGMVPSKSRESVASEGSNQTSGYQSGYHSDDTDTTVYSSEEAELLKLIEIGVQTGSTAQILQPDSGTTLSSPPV
Epithelial discoidin domain-containing receptor 1 (Homo sapiens), sequence (Q08345 whole entry, the tested form may be a part): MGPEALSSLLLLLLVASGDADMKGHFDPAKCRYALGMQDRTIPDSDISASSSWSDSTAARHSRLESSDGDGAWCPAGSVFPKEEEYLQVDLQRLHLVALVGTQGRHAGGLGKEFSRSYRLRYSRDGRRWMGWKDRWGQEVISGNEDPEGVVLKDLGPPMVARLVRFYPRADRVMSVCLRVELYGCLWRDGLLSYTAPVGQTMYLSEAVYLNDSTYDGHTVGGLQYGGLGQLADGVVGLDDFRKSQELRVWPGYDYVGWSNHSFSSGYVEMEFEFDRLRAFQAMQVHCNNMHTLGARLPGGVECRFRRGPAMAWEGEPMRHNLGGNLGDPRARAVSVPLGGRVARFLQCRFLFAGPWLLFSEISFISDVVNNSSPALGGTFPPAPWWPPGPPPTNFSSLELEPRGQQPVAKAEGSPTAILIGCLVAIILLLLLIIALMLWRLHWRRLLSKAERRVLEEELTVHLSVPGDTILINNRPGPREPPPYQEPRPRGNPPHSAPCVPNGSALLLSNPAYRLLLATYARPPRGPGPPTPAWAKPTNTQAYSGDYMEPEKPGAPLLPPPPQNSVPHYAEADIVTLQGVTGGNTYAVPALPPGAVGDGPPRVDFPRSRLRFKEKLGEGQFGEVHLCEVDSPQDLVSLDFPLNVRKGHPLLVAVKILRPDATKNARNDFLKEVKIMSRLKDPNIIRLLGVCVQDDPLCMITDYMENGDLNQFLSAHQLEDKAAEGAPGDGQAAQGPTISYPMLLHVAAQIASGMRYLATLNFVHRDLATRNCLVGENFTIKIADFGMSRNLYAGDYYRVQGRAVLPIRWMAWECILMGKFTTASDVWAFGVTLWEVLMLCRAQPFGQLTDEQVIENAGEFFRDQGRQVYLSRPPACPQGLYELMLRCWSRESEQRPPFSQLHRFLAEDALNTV
Serine/threonine-protein kinase B-raf (Homo sapiens), sequence (P15056 whole entry): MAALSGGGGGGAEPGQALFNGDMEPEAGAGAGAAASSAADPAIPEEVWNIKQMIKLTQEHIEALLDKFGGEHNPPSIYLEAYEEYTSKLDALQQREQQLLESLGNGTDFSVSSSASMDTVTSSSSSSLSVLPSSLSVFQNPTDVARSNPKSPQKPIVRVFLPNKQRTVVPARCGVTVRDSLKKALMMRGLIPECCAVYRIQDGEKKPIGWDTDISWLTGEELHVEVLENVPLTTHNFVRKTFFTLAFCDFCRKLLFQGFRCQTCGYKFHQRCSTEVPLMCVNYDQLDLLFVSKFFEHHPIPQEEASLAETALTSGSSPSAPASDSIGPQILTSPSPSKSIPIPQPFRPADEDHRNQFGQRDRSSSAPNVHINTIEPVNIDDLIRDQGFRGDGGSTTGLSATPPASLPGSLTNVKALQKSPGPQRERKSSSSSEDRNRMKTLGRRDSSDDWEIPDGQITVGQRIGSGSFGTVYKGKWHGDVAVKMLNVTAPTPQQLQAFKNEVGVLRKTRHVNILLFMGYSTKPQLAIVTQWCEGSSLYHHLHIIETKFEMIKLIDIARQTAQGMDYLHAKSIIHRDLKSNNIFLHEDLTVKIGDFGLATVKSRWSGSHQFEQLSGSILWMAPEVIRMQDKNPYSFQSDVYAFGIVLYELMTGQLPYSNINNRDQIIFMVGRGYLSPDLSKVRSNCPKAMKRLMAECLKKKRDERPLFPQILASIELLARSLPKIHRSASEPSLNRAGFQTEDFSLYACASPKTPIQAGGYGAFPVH

AUC(0-inf) [1]: 59.4 µg·h/mL | IC50 (BaF3): 0.29 µM | IC50 (K562): 16.6 µM | IC50 (U-87 MG): > 30 µM | half-life [11]: 2.46 h | Vd [12]: 0.301 L/kg | Cmax [13]: 8.02 µg/mL | AUC(0-t) at 48 h [14]: 45.6 µg·h/mL | MRT last at 48 h [15]: 4.49 h | inhibition [19]: inactive | inhibition [20]: inactive | inhibition [21]: inactive | inhibition [22]: inactive | inhibition (Homo sapiens [23]): inactive | inhibition [24]: inactive | inhibition (Homo sapiens [25]): inactive | inhibition [26]: inactive | inhibition [27]: inactive | inhibition [28]: inactive | inhibition [29]: inactive | inhibition [30]: inactive | inhibition [31]: inactive | inhibition [32]: inactive | inhibition [33]: inactive | inhibition [34]: inactive | inhibition (Homo sapiens [35]): inactive | IC50 [36]: 0.131 µM
SMILES: O=C(Nc1ccc(Oc2ccnc(NC(=O)N3CC(O)C3)c2)c(F)c1)c1cn(-c2cccnc2)nn1
IC50 (OE33): > 30 µM | inhibition (MOLM-13 [2]): Dose-dependent-effect | Activity (MOLM-13 [3]): 14% | Activity (MOLM-13 [4]): Not active; Compound Barely Affect Stat5 Level | Activity (MOLM-13 [5]): 89.9% | Activity (MOLM-13 [6]): 4.33% | Activity (MOLM-13 [7]): 1.05% | viability at 1 µM (MOLM-13 [8]): 56.7% | Activity (MOLM-13 [9]): 38.4% | Activity (MOLM-13 [10]): 0.063% | Activity [16]: Non-toxic | Activity [17]: Non-toxic | Activity [18]: Non-toxic
